Source: US20200318189A1 (CHANG GUNG MEMORIAL HOSPITAL, LINKOU, priority 2017, published 2020)

What was measured:
[1] = test system: HLA-A*0207 and HLA-B*1502 alleles

SMILES: Nc1nnc(-c2cccc(Cl)c2Cl)c(N)n1 [lamotrigine, Lamotrigine]
- Sensitivity (%) [1]: 61.54%
- Specificity (%) [1]: 73.51%
- Sensitivity (%) (HLA-B*1502 allele): 26.92%
- Specificity (%) (HLA-B*1502 allele): 90.33%
- Sensitivity (%) (HLA-A*0207 allele): 42.31%
- Specificity (%) (HLA-A*0207 allele): 83.18%
